Laboratory results taken from US9643933B2, “Compounds useful as antibiotic tolerance inhibitors” (priority 2013, dated 2017).
Where two headings read alike, the source gives them in different places.

How the values were obtained:
HHQ = test: Assay for HHQ Inhibition (6 Hour Incubation); format: cell-based, P. aeruginosa PA14 wild-type strain
Method: (§1) A concentration range with 7 test concentrations is chosen for each test compound. Typically concentration ranges for the PQS and HHQ assays are from 0.03 to 31.6 μM. Compounds are prepared in solvent, usually DMSO, at either 200 or 500 times the final test concentration.
(§2) P. aeruginosa PA14 wild-type strain is inoculated into 5 ml LB broth in a 15 ml sterile glass culture tube and incubated overnight at 37° C. under shaking (˜240 rpm). After overnight incubation, the bacterial culture is diluted in fresh LB broth to an OD600 nm=0.04, and 5 mL aliquots of the diluted bacterial culture are distributed into 15-mL glass tubes. 10 μL of test compound at 500 times the final test concentration or 25 μL of test compound at 200 times the final test concentration or solvent alone is added to each of the bacterial suspension tubes, and the tubes are incubated at 37° C. under shaking (300 rpm) for 6 hours. At the end of the incubation period, a 0.5 mL aliquot of bacterial suspension is transferred from each 15 mL glass tube, after shaking, to a 2 mL polypropylene vial. 0.5 mL of methanol-containing D4-PQS (deuterated-PQS), D4-HHQ (deuterated-HHQ) and 2% acetic acid are added to each 2 mL vial and each vial is vigorously shaken. The vials are then centrifuged for 5 minutes at 12,000 g, and 200 μL of supernatant from each vial is transferred to a glass vial (vials crimp 0.2 mL), and the sealed vials are kept at 4° C. until LC-MS/MS analysis is performed. HAQs quantification is carried out analyzing samples in discrete batches together with spiked standards and blank samples. Calibration curves are constructed from HAQs standards, and respective deuterated forms are used as Internal Standards (IS), to calculate the concentration of analytes in the sample and improve the precision of the assay. The back-calculated concentrations of the calibration standards from the calibration curve shall be within ±20% of the nominal values, the range of the analytical method is determined, and the lower and upper limit of quantification specified.
(§3) Liquid chromatography separations are performed using Agilent HP1100 system (Agilent Technologies) coupled with a CTC PAL Autosampler (CTC Analytics AG). Chromatographic retention is obtained using a monolithic column (Chromolith® RP-18, 50×4.6 mm). The solvent system consists of water containing 0.1% (v/v) formic acid (A) and acetonitrile containing 0.1% (v/v) formic acid (B). The gradient elution profile is chosen as follows: 0 min: 70% A (1500 μL/min), 0.3 min: 70% A (1500 μL/min), 1.3 min: 5% A (2500 μL/min), 1.6 min: 5% A (2500 μL/min).
(§4) The MS/MS analysis is performed with a API4000 series mass spectrometer (AB Sciex™) operating in Multiple Reaction Monitoring (MRM) mode and equipped with a TIS ion source. The specific ions monitored are PQS (m/z 260→m/z 175), D4-PQS (m/z 264→m/z 179), HHQ (m/z 244→m/z 159) and D4-HHQ (m/z 248→m/z 163). PQS and HHQ in presence of different test compound concentrations are expressed as percentage of inhibition of the basal level in control samples.

PQS = test: Assay for PQS Inhibition (6 Hour Incubation); format: cell-based, P. aeruginosa PA14 wild-type strain
Method: as §1, §2, §3, §4

[1] = Pseudomonas aeruginosa, PA14, 6 h, read-out: HHQ (6 hr) IC50 (μM)
[2] = Pseudomonas aeruginosa, PA14, 6 h, read-out: PQS (6 hr) IC50 (μM)

| Compound | IC50 (HHQ; [1]) [µM] | IC50 (PQS; [2]) [µM] | IC50 (HHQ; P. aeruginosa PA14 culture, 6 hours incubation, HHQ by LC-MS/MS, read-out: HHQ (6 hr) IC50) [µM] | IC50 (PQS; P. aeruginosa PA14 culture, 6 hours incubation, PQS by LC-MS/MS, read-out: PQS (6 hr) IC50) [µM] |
| --- | --- | --- | --- | --- |
| O=C(CSc1nc2ccc(Cl)cc2[nH]1)Nc1ccc(Cl)cc1 [Compound 137] | < 1 | < 1 | – | – |
| N#Cc1ccc(NC(=O)CSc2nc3cc(C(F)(F)F)ccc3[nH]2)cc1 [Compound 56] | < 1 | < 1 | – | – |
| O=C(CCc1nc2cc(Cl)ccc2s1)Nc1ccc(Oc2cccnc2)cc1 [Compound 85, 3-(5-chlorobenzo[d]thiazol-2-yl)-N-(4-(pyridin-3-yloxy)phenyl)propanamide] | 1 to 5 | 1 to 5 | – | – |
| 2-((5-chloro-1H-benzo[d]imidazol-2-yl)thio)-N-(4-(pyrimidin-5-yloxy)phenyl)acetamide [Compound 79] | – | – | < 1 | < 1 |
| O=C(CSc1nc2cc(C(F)(F)F)ccc2[nH]1)Nc1ccc(Cl)cc1 [Compound 105] | < 1 | < 1 | – | – |
| O=C(CNc1nc2cc(Cl)ccc2o1)Nc1ccc(Oc2cccnc2)cc1 [Compound 74, 2-((5-chlorobenzo[d]oxazol-2-yl)amino)-N-(4-(pyridin-3-yloxy)phenyl)acetamide] | < 1 | 1 to 5 | – | – |
| O=C(CSc1nc2cc(F)ccc2[nH]1)Nc1ccc(Cl)cc1 [Compound 110] | 1 to 5 | 1 to 5 | – | – |
| O=C(CSc1nc2ccc(Br)cc2[nH]1)Nc1ccc(Cl)cc1 [Compound 145] | < 1 | < 1 | – | – |
| N#Cc1ccc2nc(SCC(=O)Nc3ccc(Cl)cc3)[nH]c2c1 [Compound 94] | 1 to 5 | 1 to 5 | – | – |
| O=C(CSc1nc2cc(F)c(F)cc2[nH]1)Nc1ccc(Br)cc1 [Compound 126] | – | 1 to 5 | – | – |
| N#Cc1ccc(NC(=O)CSc2nc3cc(Br)ccc3[nH]2)cc1 [Compound 96] | < 1 | < 1 | – | – |
| O=C(CCc1nc2ccc(Cl)cc2[nH]1)Nc1ccc(Oc2cccnc2)cc1 [Compound 152, 3-(5-chloro-1H-benzo[d]imidazol-2-yl)-N-(4-(pyridin-3-yloxy)phenyl)propanamide] | < 1 | < 1 | – | – |
| N#Cc1ccc(NC(=O)CSc2nc3cc(Br)ccc3o2)cc1 [Compound 147] | < 1 | < 1 | – | – |
| O=C(CNc1nc2cc(Cl)ccc2s1)Nc1ccc(Oc2cccnc2)cc1 [Compound 71, 2-((5-chlorobenzo[d]thiazol-2-yl)amino)-N-(4-(pyridin-3-yloxy)phenyl)acetamide] | 1 to 5 | 1 to 5 | – | – |
| N#Cc1ccc(NC(=O)CSc2nc3cc(Cl)ccc3[nH]2)cc1Cl [Compound 142] | < 1 | < 1 | – | – |
| O=C(CCc1nc2ccc(Cl)cc2s1)Nc1ccc(Oc2cccnc2)cc1 [Compound 86, 3-(6-Chlorobenzo[d]thiazol-2-yl)-N-(4-(pyridin-3-yloxy)phenyl)propanamide] | > 10 | > 10 | – | – |
| COc1ccc(NC(=O)CSc2nc3ccc(Cl)cc3[nH]2)cc1 [Compound 140] | – | 5 to 10 | – | – |
| N#Cc1ccc(NC(=O)CSc2nc3cc(OC(F)F)ccc3[nH]2)cc1 [Compound 104] | 1 to 5 | 1 to 5 | – | – |
| O=C(CSc1nc2cc(Cl)ccc2[nH]1)Nc1ccc(Oc2ccc(Cl)nc2)cc1 [Compound 84, 2-((5-chloro-1H-benzo[d]imidazol-2-yl)thio)-N-(4-((6-chloropyridin-3-yl)oxy)phenyl)acetamide] | < 1 | < 1 | – | – |
| N#Cc1ccc(NC(=O)CSc2nc3cc(F)ccc3[nH]2)cc1 [Compound 57] | 1 to 5 | 1 to 5 | – | – |
| N#Cc1ccc(NC(=O)CSc2nc3ccc(C#N)cc3[nH]2)cc1 [Compound 93] | < 1 | 1 to 5 | – | – |
| N#Cc1ccc(NC(=O)CSc2nc3cc(Cl)ccc3[nH]2)cc1 [Compound 125] | < 1 | < 1 | – | – |
| O=C(CSc1nc2cc(Cl)ccc2[nH]1)Nc1ccc(Oc2cccnc2Cl)cc1 [Compound 83, 2-((5-chloro-1H-benzo[d]imidazol-2-yl)thio)-N-(4-((2-chloropyridin-3-yl)oxy)phenyl)acetamide] | < 1 | < 1 | – | – |
| O=C(CSc1nc2cc(Cl)ccc2[nH]1)Nc1ccc(Oc2cccnc2)cc1 [Compound 77, 2-((5-chloro-1H-benzo[d]imidazol-2-yl)thio)-N-(4-(pyridin-3-yloxy)phenyl)acetamide] | < 1 | < 1 | – | – |
| O=C(CSc1nc2ccc(-n3cccn3)cc2[nH]1)Nc1ccc(Cl)cc1 [Compound 116] | > 10 | > 10 | – | – |
